pEC50: −log10 of the molar value.
Tested on: not listed separately
Experiment: Liver microsomal stability, human liver microsomes
Conditions: human, liver microsomes
Description: Liver Microsomal Stability Protocol
Test compounds and one control compound (verapamil) were tested in 3 different species in duplicate sets.
Test compound concentration: 1 uM; Protein concentration: 0.5 mg/mL (for dog, rat, and human liver microsomes); Cofactor: NADPH-Regenerating system (NRS) solution; Time-points: 2, 12, 25, 45, and 65 minutes.
Reaction Composition (in Each Incubation Well) Contains:
At an incubation temperature of 37° C., the reaction was started with addition of NADPH Regeneration System, at each time point, 25 uL of the reaction mixture was removed and added to a plate with 225 uL quenching solution (50% MeOH, 25% ACN, 25% H2O, and 200 nM labetalol as internal standard). After plates were vortexed, they were centrifuged for 30 minutes to remove proteins. About 100 μL supernatant was removed to a new plate and diluted with 150 μL water. About 20 μL of the mixture was injected into LC/MS/MS system to monitor the compound's response. In vitro measured t1/2 was used to calculate Clint values.

half-life at 1 uM [h] | SMILES
≥ 6.58 | CC(C)(C)C[C@]1(c2ccc3nc(C#Cc4ccccc4)ccc3c2)NC(=N)N([C@H](COC(=O)NC2(C(F)(F)F)CC2)c2ccc(Cl)c(-n3ncnc3C(F)F)c2)C1=O (stereo in doubt) [Compound 360]
≥ 6.58 | CC(C)(C)C[C@]1(c2ccc(-c3cnn(C(F)F)c3)cc2)NC(=N)N([C@H](COC(=O)NC2CC2)c2ccc(Cl)c(-c3nccc(=O)[nH]3)c2)[C@H]1O [Compound 17]
≥ 6.58 | CC(C)(C)C[C@]1(c2ccc(-c3cnn(C(F)F)c3)cc2)NC(=N)N([C@H](COC(=O)NC2(C(F)(F)F)CC2)c2ccc(Cl)c(-c3ccccn3)c2)C1=O [Compound 20]
≥ 6.58 | [H]/N=C1\N[C@](CC(C)(C)C)(c2ccc(-c3cnn(C(F)F)c3)cc2)C(=O)N1[C@H](COC(=O)NC1CC1)c1ccc(Cl)c(-c2ncn(C(F)F)n2)c1 [Compound 34]
≥ 6.58 | CC(C)(C)C[C@]1(c2ccc(-c3cnn(C(F)F)c3)cc2)NC(=N)N([C@H](COC(=O)NC2(C(F)(F)F)CC2)c2ccc(Cl)c(-c3nnn[nH]3)c2)C1=O [Compound 72]

SMILES | half-life at 1 uM [h]
CC(C)(C)C[C@]1(c2ccc(-c3cnn(C(F)F)c3)cc2)NC(=N)N([C@H](COC(=O)N[C@@H]2CC2C(F)(F)F)c2ccc(Cl)c(-n3ncnc3C(F)F)c2)C1=O (single isomer, unassigned) [Compound 331] | ≥ 6.58

Tested on: HIV-1 (IIIB) in MT-4 cells
Experiment: microbe, parasite or virus in culture
Type: cell-based
Conditions: Human immunodeficiency virus 1, IIIB, MT4, MT-4 cells, HIV-1; read-out: MT4 EC50

SMILES | pEC50
CC(C)(C)C[C@]1(c2ccc(-c3cnn(C(F)F)c3)cc2)NC(=N)N([C@H](COC(=O)N[C@@H]2CC2C(F)(F)F)c2ccc(Cl)c(-n3ncnc3C(F)F)c2)C1=O (single isomer, unassigned) [Compound 331] | 7.78
CC(C)(C)C[C@]1(c2ccc3nc(C#Cc4ccccc4)ccc3c2)NC(=N)N([C@H](COC(=O)NC2(C(F)(F)F)CC2)c2ccc(Cl)c(-n3ncnc3C(F)F)c2)C1=O (stereo in doubt) [Compound 360] | 7.10
CC(C)(C)C[C@]1(c2ccc(-c3cnn(C(F)F)c3)cc2)NC(=N)N([C@H](COC(=O)NC2CC2)c2ccc(Cl)c(-c3nccc(=O)[nH]3)c2)[C@H]1O [Compound 17] | 6.25
CC(C)(C)C[C@]1(c2ccc(-c3cnn(C(F)F)c3)cc2)NC(=N)N([C@H](COC(=O)NC2(C(F)(F)F)CC2)c2ccc(Cl)c(-c3ccccn3)c2)C1=O [Compound 20] | 7.12
[H]/N=C1\N[C@](CC(C)(C)C)(c2ccc(-c3cnn(C(F)F)c3)cc2)C(=O)N1[C@H](COC(=O)NC1CC1)c1ccc(Cl)c(-c2ncn(C(F)F)n2)c1 [Compound 34] | 7.41
CC(C)(C)C[C@]1(c2ccc(-c3cnn(C(F)F)c3)cc2)NC(=N)N([C@H](COC(=O)NC2(C(F)(F)F)CC2)c2ccc(Cl)c(-c3nnn[nH]3)c2)C1=O [Compound 72] | 5.24
CC1(NC(=O)OC[C@H](c2ccc(Cl)c(-n3cccn3)c2)N2C(=N)N[C@](CC(C)(C)C(F)(F)F)(c3ccc(-c4cnn(C(F)F)c4)cc3)C2=O)CC1 [Compound 323] | 7.30
CC1(NC(=O)OC[C@H](c2ccc(Cl)c(-n3cccn3)c2)N2C(=N)N[C@](CC(C)(C)C(F)(F)F)(c3ccc(-c4cnn(C5CC5)c4)cc3)C2=O)CC1 [Compound 324] | 7.56
CC(C)(C)C[C@]1(c2ccc(N3CCn4c(nnc4C(F)(F)F)C3)cc2)NC(=N)N([C@H](COC(=O)NC2(C(F)(F)F)CC2)c2ccc(Cl)c(-n3ncnc3C(F)F)c2)C1=O [Compound 326] | 7.28
CC(C)(F)C[C@]1(c2ccc(-c3cnccn3)cc2)NC(=N)N([C@H](COC(=O)NC2(C(F)(F)F)CC2)c2ccc(Cl)c(-n3ncnc3C(F)F)c2)C1=O [Compound 328] | 7.65
CC(C)(F)C[C@]1(c2ccc(-c3ncccn3)cc2)NC(=N)N([C@H](COC(=O)NC2(C(F)(F)F)CC2)c2ccc(Cl)c(-n3ncnc3C(F)F)c2)C1=O [Compound 329] | 7.64
CC(C)(C)C[C@]1(c2ccc(-c3cnn(C(F)F)c3)cc2)NC(=N)N([C@H](COC(=O)N[C@H]2C[C@@H]2C(F)F)c2ccc(Cl)c(-n3ncnc3C(F)F)c2)C1=O [Compound 332] | 7.91
CC(C)(C)C[C@]1(c2ccc(-c3cnn(C(F)F)c3)cc2)NC(=N)N([C@H](COC(=O)N[C@@H]2C[C@H]2C(F)F)c2ccc(Cl)c(-n3ncnc3C(F)F)c2)C1=O [Compound 333] | 7.98
CC(C)(C)C[C@]1(c2ccc(-c3cnn(C(F)F)c3)cc2)NC(=N)N([C@H](COC(=O)N[C@@H]2C[C@H]2F)c2ccc(Cl)c(-n3ncnc3C(F)F)c2)C1=O [Compound 337] | 8.01
CC(C)(C)C[C@]1(c2ccc(-c3cnn(C(F)F)c3)cc2)NC(=N)N([C@H](COC(=O)N[C@H]2C[C@@H]2F)c2ccc(Cl)c(-n3ncnc3C(F)F)c2)C1=O [Compound 338] | 8.00
CC(C)(C)C[C@]1(c2ccc(-c3cnn(C(F)F)c3)c(F)c2)NC(=N)N([C@H](COC(=O)N[C@H]2CC2(F)F)c2ccc(Cl)c(-n3ncnc3C(F)F)c2)C1=O [Compound 340] | 8.18
CC(C)(C)C[C@]1(c2ccc(-c3cnn(C(F)F)c3)cc2)NC(=N)N([C@H](COC(=O)N[C@@H]2CC23CC3)c2ccc(Cl)c(-n3ncnc3C(F)F)c2)C1=O [Compound 341] | 8.07
CC(C)(C)C[C@]1(c2ccc(-c3cnn(C(F)F)c3)cc2)NC(=N)N([C@H](COC(=O)N[C@H]2CC23CC3)c2ccc(Cl)c(-n3ncnc3C(F)F)c2)C1=O [Compound 342] | 8.05
C[C@@H](NC(=O)OC[C@H](c1ccc(Cl)c(-n2ncnc2C(F)F)c1)N1C(=N)N[C@](CC(C)(C)C)(c2ccc(-c3cnn(C(F)F)c3)cc2)C1=O)C(F)F [Compound 343] | 7.77
CC(C)(C)C[C@]1(c2ccc3nc(C4CC4)ccc3c2)NC(=N)N([C@H](COC(=O)NC2(C(F)(F)F)CC2)c2ccc(Cl)c(-n3ncnc3C(F)F)c2)C1=O [Compound 353] | 8.07
CC(C)(C)C[C@]1(c2ccc3nc(C(F)F)ccc3c2)NC(=N)N([C@H](COC(=O)NC2(C(F)(F)F)CC2)c2ccc(Cl)c(-n3ncnc3C(F)F)c2)C1=O [Compound 354] | 8.30
CC(C)(C)C[C@]1(c2ccc(-n3cnnn3)c(F)c2)NC(=N)N([C@H](COC(=O)NC2(C(F)(F)F)CC2)c2ccc(Cl)c(-n3ncnc3C(F)F)c2)C1=O [Compound 355] | 7.61

SMILES | pEC50
CC(C)(C)C[C@]1(c2ccc(-c3nnn(C4CC4)n3)cc2)NC(=N)N([C@H](COC(=O)NC2(C(F)(F)F)CC2)c2ccc(Cl)c(-n3ncnc3C(F)F)c2)C1=O [Compound 356] | 7.71
Cn1nnc(-c2ccc([C@@]3(CC(C)(C)C)NC(=N)N([C@H](COC(=O)NC4(C(F)(F)F)CC4)c4ccc(Cl)c(-n5ncnc5C(F)F)c4)C3=O)cc2)n1 [Compound 357] | 7.98
Cn1nnnc1-c1ccc([C@@]2(CC(C)(C)C)NC(=N)N([C@H](COC(=O)NC3(C(F)(F)F)CC3)c3ccc(Cl)c(-n4ncnc4C(F)F)c3)C2=O)cc1 [Compound 358] | 7.12
CC(C)(CC#N)C[C@]1(c2ccc(-c3cnn(C4CC4)c3)cc2)NC(=N)N([C@H](COC(=O)NC2(C(F)(F)F)CC2)c2ccc(Cl)c(-n3ncnc3C(F)F)c2)C1=O [Compound 362] | 7.44
CC(C)(C)C[C@]1(c2ccc(-c3cn(C4(C(F)(F)F)CC4)nn3)cc2)NC(=N)N([C@H](COC(=O)NC2(C(F)(F)F)CC2)c2ccc(Cl)c(-n3ncnc3C(F)F)c2)C1=O [Compound 364] | 7.67
CC(C)(C)C[C@]1(c2ccc(-c3cnn(C(F)F)c3)cc2)NC(=N)N([C@H](COc2ccc(F)cc2F)c2ccc(Cl)c(-n3ncnc3C(F)F)c2)C1=O [Compound 365] | 6.85
C[C@H](NC(=O)OC[C@H](c1ccc(Cl)c(-n2ncnc2C(F)F)c1)N1C(=N)N[C@](CC(C)(C)C)(c2ccn3nccc3c2)C1=O)C(F)(F)F [Compound 367] | 7.72
CC(C)n1ncc(-c2ccc([C@@]3(CC(C)(C)C)NC(=N)N([C@H](COC(=O)NC4(C(F)(F)F)CC4)c4ccc(Cl)c(-n5ncnc5C(F)F)c4)C3=O)cc2)n1 [Compound 371] | 7.57
CC(C)(C)C[C@]1(c2ccc(C(F)(F)F)cc2)NC(=N)N([C@H](COC(=O)NC2(C(F)(F)F)CC2)c2ccc(Cl)c(-n3ncnc3C(F)F)c2)C1=O [Compound 373] | 7.30
CC(C)(C)C[C@]1(c2ccc(-c3cnn(C(F)F)c3)cc2)NC(=N)N([C@H](COC(=O)NC2(C)CC2)c2cccc(-n3ncnc3C(F)F)c2)C1=O [Compound 375] | 7.51
CC(C)(C)C[C@]1(c2ccc(-c3cnn(C(F)F)c3)cc2)NC(=N)N([C@H](COC(=O)N(CC(F)F)C2CC2)c2ccc(Cl)c(-n3cncn3)c2)C1=O [Compound 376] | 7.92
CC(C)(C)C[C@]1(c2ccc(C#CC(C)(C)S(C)(=O)=O)cc2)NC(=N)N([C@H](COC(=O)NC(C)(C)C(F)F)c2ccc(Cl)c(-n3cncn3)c2)C1=O [Compound 377] | 7.04
CC(C)(C)C[C@]1(c2ccc(-c3ncon3)cc2)NC(=N)N([C@H](COC(=O)NC2(C(F)(F)F)CC2)c2ccc(Cl)c(-n3cncn3)c2)C1=O [Compound 378] | 7.45
CC(C)(C)C[C@]1(c2ccc(-c3cnn(C4CC4)n3)cc2)NC(=N)N([C@H](CNC(=O)C2CC2)c2ccc(Cl)c(-n3ncnc3C(F)F)c2)C1=O [Compound 381] | 7.61
CC(C)(C)C[C@]1(c2ccc(-c3cnn(C4CC4)n3)cc2)NC(=N)N([C@H](CNC(=O)C2(C)CC2)c2ccc(Cl)c(-n3ncnc3C(F)F)c2)C1=O [Compound 382] | 7.44
CC(C)(C)C[C@]1(c2ccc(-c3cnn(C4CC4)n3)cc2)NC(=N)N([C@H](CNC(=O)CC(F)(F)F)c2ccc(Cl)c(-n3ncnc3C(F)F)c2)C1=O [Compound 383] | 8.01
CC(C)(C)C[C@]1(c2ccc(-c3cnn(C4CC4)n3)cc2)NC(=N)N([C@H](CNC(=O)CC2CC2)c2ccc(Cl)c(-n3ncnc3C(F)F)c2)C1=O [Compound 384] | 7.74
C[C@H](C(=O)NC[C@H](c1ccc(Cl)c(-n2ncnc2C(F)F)c1)N1C(=N)N[C@](CC(C)(C)C)(c2ccc(-c3cnn(C4CC4)n3)cc2)C1=O)C(F)(F)F [Compound 385] | 7.89
C[C@@H](C(=O)NC[C@H](c1ccc(Cl)c(-n2ncnc2C(F)F)c1)N1C(=N)N[C@](CC(C)(C)C)(c2ccc(-c3cnn(C4CC4)n3)cc2)C1=O)C(F)(F)F [Compound 386] | 7.63
CC(C)C(=O)NC[C@H](c1ccc(Cl)c(-n2ncnc2C(F)F)c1)N1C(=N)N[C@](CC(C)(C)C(F)(F)F)(c2ccc(-c3cnn(C4CC4)n3)cc2)C1=O [Compound 388] | 7.77
C[C@@H](C(=O)NC[C@H](c1ccc(Cl)c(-n2ncnc2C(F)F)c1)N1C(=N)N[C@](CC(C)(C)C(F)(F)F)(c2ccc(-c3cnn(C4CC4)n3)cc2)C1=O)C(F)(F)F [Compound 390] | 7.68
[2H]C([2H])([2H])OC(=O)NC[C@H](c1ccc(Cl)c(-n2ncnc2C(F)F)c1)N1C(=N)N[C@](CC(C)(C)C(F)(F)F)(c2ccc(-c3cnn(C4CC4)n3)cc2)C1=O [Compound 393] | 7.57

Source: US10774053B2, “HIV protease inhibitors” (Gilead Sciences, Inc., priority 2017, dated 2020)
